Where two headings read alike, the source gives them in different places.
Columns and labels:
[1] = test system: HIV-1 infection of TZM-bl cells; assay: HIV-1 infectivity enhancement assay, β-galactosidase luminescence; assay type: cell-based; conditions: for Log10 Inf. rel. to EF-C: log10 of HIV-1 infection of TZM-bl cells relative to EF-C, Fig S15 source data, asymmetric std dev errors
[2] = Zeta-potential measurement; assay type: physicochemical; conditions: for Zeta-pot. / mV: zeta potential of peptide, Fig S15 source data
Procedure, shortened: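 Samples: 1 mg/mL in PBS pH 7.4 (from DMSO), 1 d at RT, then diluted in 1 mM KCl immediately before measurement. Triplicates, two independent runs averaged.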

[3] = Turbidity, derived count rate of scattered light; assay type: physicochemical
Procedure, shortened: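 One-day room-temperature aggregation at 1 mg/mL in PBS (pH 7.4) preceded measurement; samples then went into 1 mM KCl. Triplicates per sample, two independent experiments averaged.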

[4] = Feb2021, Log10 of infectivity relative to EF-C
[5] = Feb2021, figures match the 1.3 µM column
[6] = Feb2021, infectivity relative to virus only
[7] = Feb2021, n-fold enhancement relative to EF-C
[8] = Feb2021, n-fold infectivity relative to EF-C
[9] = infectivity class (low / medium / high) of each library peptide, main list in c1-c6, same classes repeated in sub-lists of sequences containing the hydrophobicity/charge patterns P+,H0,P+,H0,P0,H0,P0, P+,H0,P0,H0,P0,H0,P0, P+,H0,P0,H0
[10] = infectivity class (low / medium / high) of the peptide in the sequence-pattern analysis, Fig. S22-A4, class limits not given
[11] = category 1 or 0 from count rate, key not given
[12] = derived count rate of scattered light
[13] = derived count rate of scattered light, mean, std deviation in next column
[14] = Feb2021, 1.3 µM value relative to virus only (0 µM)
[15] = Feb2021, unrounded values of the 1.3 µM column
[16] = Feb2021 run, infectivity n-fold relative to virus alone
[17] = Feb2021 run, log10 of infectivity relative to EF-C
[18] = Feb2021 run, n-fold infectivity relative to EF-C
[19] = derived count rate of scattered light, mean, std deviation in separate column
[20] = Feb2021, log10 of infectivity relative to EF-C

Substance	Log10 of Rel to EFC (Feb2021) [1, 4]	Rel-to EFC (Feb-2021) [1, 7]	Rel-to EFC (Feb-2021) [1, 8]	infectivity [1, 9]	infectivity [1, 10]	Log10 Inf. rel. to EF-C [1]	Zeta category ( +1 = if > 4 mV;-1 = if < -4 mV; 0 = -4mV to 4 mV) [2]	Zeta category ( +1 = if > 4 mV;-1 = if < -4 mV; 0 = -4mV to 4 mV) ([2]; category from zeta potential)	Zeta Pot. / mV ([2]; mean, Std Zeta in next column) [mV]	Zeta-pot. / mV [2] [mV]	Zeta Count Rate Category [3, 11]	Zeta Count Rate / kcps [3, 13] [kcps]	n-fold to virus (Feb2021) [1, 14]	Absolute Infectivity / RLU /s (Feb2021) [1, 15] [RLU /s]	n-fold to virus (Feb2021) [1, 16]	Log10 of Rel to EFC (Feb2021) [1, 17]	Rel-to EFC (Feb-2021) [1, 18]	Zeta Pot. / mV ([2]; mean, Std in separate column) [mV]	Zeta Count Rate Category ([3]; category 1/0, no key printed)	Zeta Count Rate / kcps [3, 19] [kcps]	also measured
KAKAKAQA [TG15]	-2.06	0.008711	0.008711	low	low	-2.06	-1 (-1 = if < -4 mV)	-1 (-1 = if < -4 mV)	-9.01	-9.01	0	76.93	–	–	–	–	–	–	–	–	Absolute Infectivity / RLU /s (Feb2021) [1, 5]: 186.7 RLU /s; n-fold to virus (Feb2021) [1, 6]: 0.366; Zeta Pot. / mV [2]: -9.01 mV; Zeta Count Rate Category ([3]; category 1 / 0, no key given): 0; Zeta Count Rate / kcps [3, 12]: 76.93 kcps
QCKFKFQFNM [CK8]	-0.2906	0.5121	0.5121	medium	–	-0.2906	1 (+1 = if > 4 mV)	1 (+1 = if > 4 mV)	15.7	15.7	1	3669.6	21.52	16353.33333	21.52	-0.2906	0.5121	15.7	1	3669.6	–
QCKAKAQANMWQ [CK22]	-1.144	0.07183	0.07183	low	–	-1.144	-1 (-1 = if < -4 mV)	-1 (-1 = if < -4 mV)	-8.05	-8.05	1	427.5	3.018	2767	3.018	-1.144	0.07183	-8.05	1	427.5	–
MKIKIQINM [TM41]	–	–	0.2732	medium	–	-0.5635	1 (+1 = if > 4 mV)	–	9.13	9.13	–	981.3	11.48	15000	–	–	–	–	1	–	Log10 of Rel to EFC (Feb2021) [1, 20]: -0.5635
KIKIKIQI [TG13]	-1.014	0.09675	0.09675	low	low	-1.014	1 (+1 = if > 4 mV)	1 (+1 = if > 4 mV)	6.97	6.97	1	999.1	–	–	–	–	–	–	–	–	Absolute Infectivity / RLU /s (Feb2021) [1, 5]: 2073 RLU /s; n-fold to virus (Feb2021) [1, 6]: 4.065; Zeta Pot. / mV [2]: 6.97 mV; Zeta Count Rate Category ([3]; category 1 / 0, no key given): 1; Zeta Count Rate / kcps [3, 12]: 999.1 kcps
CEIEIQINM [TM144]	–	–	0.06512	–	low	-1.186	-1 (-1 = if < -4 mV)	–	-15.3	-15.3	–	58.43	2.736	3593	–	–	–	-15.3	0	–	Log10 of Rel to EFC (Feb2021) [1, 20]: -1.186; Rel-to EFC (Feb-2021) ([1]; infectivity enhancement relative to EF-C (=1), Feb2021 run): 0.06512; n-fold to virus (Feb2021) ([1]; infectivity n-fold relative to virus only, Feb2021 run): 2.736; Log10 of Rel to EFC (Feb2021) ([1]; log10 of infectivity relative to EF-C, Feb2021 run): -1.186; Zeta Count Rate / kcps ([3]; derived count rate from zeta measurement, mean): 58.43 kcps; Zeta Count Rate Category ([3]; key not given): 0
QCKIKIQI [CK3]	-0.9508	0.112	0.112	medium	–	-0.9508	1 (+1 = if > 4 mV)	1 (+1 = if > 4 mV)	9.52	9.52	1	12426.83333	4.706	3577	4.706	-0.9508	0.112	9.52	1	12426.83333	–
QCKFKFQF [CK9]	-0.1152	0.767	0.767	–	high	-0.1152	1 (+1 = if > 4 mV)	1 (+1 = if > 4 mV)	12.2	12.2	1	2669	32.23	20303.33333	32.23	-0.1152	0.767	12.2	1	2669	–
CKFKFQFNMW [KB14]	–	–	0.9602	high	high	-0.01766	1 (+1 = if > 4 mV)	–	18.4	18.4	–	4107	40.34	21516.66667	40.34	-0.01766	0.9602	18.4	1	4107	Log10 of Rel to EFC (Feb2021) [1, 20]: -0.01766
CKIKIQINMW [TM86]	0.1122	1.295	1.295	high	high	0.1122	1 (+1 = if > 4 mV)	1 (+1 = if > 4 mV)	18.3	18.3	1	4915	54.4	7253	54.4	0.1122	1.295	18.3	1	4915	–
CKYKYQY [KB2]	–	–	0.04071	low	–	-1.3903	0 (0 = -4mV to 4 mV)	–	1.49	1.49	–	1061	1.711	1083	–	–	–	–	1	–	Log10 of Rel to EFC (Feb2021) [1, 20]: -1.39
